Test results published in the Kinase Knowledgebase extract (Sharma et al. 2016).

These compounds were tested against CDK2 (UniProt P24941) (assay: Enzyme Assay). Conditions: concentration not given here.

inhibition, 100%:
Cc1sc(NC(=O)CCC(=O)c2cccs2)c(C(N)=O)c1C, CN1CCc2c(sc(NC(=O)Cc3ccc(S(C)(=O)=O)cc3)c2C(N)=O)C1, NC(=O)c1cc(-c2ccccc2)sc1NC(=O)Cc1ccc(F)cc1, COc1ccc(C(=O)Nc2sc(Cc3ccccc3)cc2C(N)=O)cc1O, COc1ccccc1OCC(=O)Nc1sc(C)c(C)c1C(N)=O, NC(=O)c1c(NC(=O)C2CCCC2)sc2c1CCCC2, Cc1sc(NC(=O)c2ccc(-n3cccc3)cc2)c(C(N)=O)c1C, CC(c1ccccc1)c1cc(C(N)=O)c(NC(=O)c2cnc3ccccc3n2)s1 (stereo not drawn), COc1ccc(C(=O)Nc2sc(C)c(C)c2C(N)=O)cc1Cl, CN(C)CC(=O)Nc1sc2c(c1C(N)=O)CCCC2, Cc1sc(NC(=O)Cc2ccc3c(c2)OCO3)c(C(N)=O)c1C, Cc1sc(NC(=O)c2cccc(Cl)c2Cl)c(C(N)=O)c1C, Cc1sc(NC(=O)c2cccc(C(F)(F)F)c2)c(C(N)=O)c1C, Cc1sc(NC(=O)/C=C\c2ccc3c(c2)OCO3)c(C(N)=O)c1C, NC(=O)c1c(N2C(=O)CCC2C(N)=O)sc2c1CCCC2 (stereo not drawn), NC(=O)c1cc(-c2ccccc2)sc1NC(=O)c1cccc(Cl)c1, COc1ccc(OC)c(C(=O)Nc2sc(C)c(C)c2C(N)=O)c1, CC(C)c1cc(C(N)=O)c(NC(=O)C(C)c2ccccc2)s1 (stereo not drawn), CN1CCc2c(sc(NC(=O)c3cc(O)c4ccc(Br)cc4n3)c2C(N)=O)C1, NC(=O)c1cc(-c2ccccc2)sc1NC(=O)/C=C/c1cccs1, NC(=O)c1cc(-c2ccccc2)sc1NC(=O)c1cccnc1Cl, NC(=O)c1c(NC(=O)c2c[nH]cn2)sc2c1CCCC2, Cc1cccc(C(=O)Nc2sc(-c3ccccc3)cc2C(N)=O)c1O, Cc1sc(NC(=O)Cc2cn(C)c3ccccc23)c(C(N)=O)c1C, COc1ccc(C(=O)Nc2sc(Cc3ccccc3)cc2C(N)=O)c(O)c1, Cc1csc(NC(=O)CNC(=O)/C=C/c2ccco2)c1C(N)=O, Cc1cccc(C)c1C(=O)Nc1sc(C(C)C)cc1C(N)=O, CN1CCc2c(sc(NC(=O)C(Cc3c[nH]cn3)NC(=O)c3ccccc3)c2C(N)=O)C1 (stereo not drawn), NC(=O)c1cc(-c2ccccc2)sc1NC(=O)Cc1ccccc1F, CN1CCc2c(sc(NC(=O)c3cc(O)c4cc(Cl)ccc4n3)c2C(N)=O)C1, CC(c1ccccc1)c1cc(C(N)=O)c(NC(=O)CC2CCc3ccccc32)s1 (stereo not drawn), Cc1cc(C)cc(CC(=O)Nc2sc(Cc3ccccc3)cc2C(N)=O)c1, Cc1csc(NC(=O)CCCc2cccs2)c1C(N)=O, NC(=O)c1cc(Cc2ccccc2)sc1NC(=O)c1ccc2c(c1)C=NC2, CC1(C)CC(=O)C=C(C(=O)Nc2sc(Cc3ccccc3)cc2C(N)=O)O1, COc1cccc(/C=C\C(=O)Nc2scc(C)c2C(N)=O)c1OC, NC(=O)c1cc(Cc2ccccc2)sc1-n1cnc2ncnc(C(=O)O)c21, COc1cccc2cc(C(=O)Nc3sc(C)c(C)c3C(N)=O)oc12, COc1ccc2cc(C(=O)Nc3scc(C)c3C(N)=O)[nH]c2c1, CCCN(CCC)C(=O)[C@H](C)Nc1sc(C(C)c2ccccc2)cc1C(N)=O (stereo partly drawn), CC(c1ccccc1)c1cc(C(N)=O)c(NC(=O)c2cc3ccccc3s2)s1 (stereo not drawn), CN1CCc2c(sc(NC(=O)c3cccc(I)c3)c2C(N)=O)C1, COc1cc(CC(=O)Nc2scc(C)c2C(N)=O)cc(OC)c1, COc1cc(C(=O)Nc2scc(C)c2C(N)=O)cc(OC)c1C, CC(C)c1cc(C(N)=O)c(NC(=O)Cc2ccsc2)s1, Cc1nocc1C(=O)Nc1sc2c(c1C(N)=O)CCCC2, CC(C)=NOC(C)C(=O)Nc1sc(C(C)C)cc1C(N)=O (stereo not drawn), NC(=O)c1c(NC(=O)c2cccs2)sc2c1CCCC2, Cc1sc(NC(=O)/C=C\c2ccc(N(C)C)cc2)c(C(N)=O)c1C, CC(c1ccccc1)c1cc(C(N)=O)c(NC(=O)c2ccc(O)c(Cl)c2)s1 (stereo not drawn), COc1cccc(OC)c1C(=O)Nc1sc(C)c(C)c1C(N)=O, CN1CCc2c(sc(NC(=O)CCc3nc4c([nH]3)c(=O)n(C)c(=O)n4C)c2C(N)=O)C1, CC(c1ccccc1)c1cc(C(N)=O)c(NC(=O)c2cnnc3ccccc23)s1 (stereo not drawn), NC(=O)c1cc(-c2ccccc2)sc1NC(=O)COc1ccccc1, NC(=O)c1cc(-c2ccccc2)sc1NC(=O)CC1CCCCCC1, NC(=O)c1cc(Cc2ccccc2)sc1NC(=O)COCc1ccccc1, COc1ccc(/C=C\C(=O)Nc2scc(C)c2C(N)=O)c(OC)c1, Cc1csc(NC(=O)C2c3ccccc3-c3ccccc32)c1C(N)=O, Cc1sc(NC(=O)c2c(Cl)cccc2Cl)c(C(N)=O)c1C, NC(=O)c1c(NC(=O)c2ccsc2)sc2c1CCCC2, CN1CCc2c(sc(NC(=O)c3ccc(I)cc3)c2C(N)=O)C1, Cc1csc(NC(=O)c2cc(-n3cccc3)ccc2O)c1C(N)=O, CC(c1ccccc1)c1cc(C(N)=O)c(NC(=O)c2nccc3ccccc23)s1 (stereo not drawn), CC(=O)N1CCC(O)C1C(=O)Nc1sc(C(C)c2ccccc2)cc1C(N)=O (stereo not drawn), NC(=O)c1cc(Cc2ccccc2)sc1NC(=O)c1ccc2c(c1)OCO2, Cc1csc(NC(=O)C2=COc3ccc(Cl)cc3C2)c1C(N)=O, CC(=O)NC(=O)C(CC(C)C)Nc1sc(C(C)c2ccccc2)cc1C(N)=O (stereo not drawn), Cc1ccoc1C(=O)Nc1sc2c(c1C(N)=O)CCCC2, NC(=O)c1cc(Cc2ccccc2)sc1NC(=O)c1cc2ccccc2[nH]1, NC(=O)c1c(NC(=O)c2ccccc2O)sc2c1CCCC2, CC(C)c1cc(C(N)=O)c(NC(=O)Cc2cccs2)s1, CN1CCc2c(sc(NC(=O)c3sc4ccccc4c3Cl)c2C(N)=O)C1, NC(=O)c1cc(Cc2ccccc2)sc1NC(=O)c1c[nH]c2ccccc12, NC(=O)c1c(NC(=O)c2ccccc2)sc2c1CCCC2, CC(C)C(=O)Nc1sc2c(c1C(N)=O)CCCC2, Cc1oncc1C(=O)Nc1sc2c(c1C(N)=O)CCCC2, COc1ccc2c(c1)C(CC(=O)Nc1sc3c(c1C(N)=O)CCN(C)C3)C(=O)C2 (stereo not drawn), NC(=O)c1cc(Cc2ccccc2)sc1NC(=O)/C=C\c1ccc(O)cc1, NC(=O)c1c(NC(=O)c2ccc[nH]2)sc2c1CCCC2, CN1CCc2c(sc(NC(=O)CCS(=O)(=O)c3ccccc3)c2C(N)=O)C1, CN1CCc2c(sc(NC(=O)Cc3c[nH]c4ccc(F)cc34)c2C(N)=O)C1, COc1ccc(Cl)cc1C(=O)Nc1sc(C)c(C)c1C(N)=O, CC(C)c1cc(C(N)=O)c(NC(=O)c2cccc(F)c2)s1, COc1ccc(C(=O)Nc2sc(-c3ccccc3)cc2C(N)=O)cc1, NC(=O)c1cc(-c2ccccc2)sc1NC(=O)c1cc2ccccc2o1, CC(c1ccccc1)c1cc(C(N)=O)c(NC(=O)C2CC(=O)c3ccccc32)s1 (stereo not drawn), CC(c1ccccc1)c1cc(C(N)=O)c(NC(=O)c2cccc(Cl)c2O)s1 (stereo not drawn), CC(c1ccccc1)c1cc(C(N)=O)c(NC(=O)C2CCc3ccccc3C2)s1 (stereo not drawn), CN(C)CCCC(=O)Nc1sc(Cc2ccccc2)cc1C(N)=O, CCCC(Nc1sc(Cc2ccccc2)cc1C(N)=O)C(=O)NC(N)=O (stereo not drawn), Cc1csc(NC(=O)c2ccccc2S(C)(=O)=O)c1C(N)=O, CC#CC(=O)Nc1sc2c(c1C(N)=O)CCCC2, COc1ccc(C(=O)Nc2scc(C)c2C(N)=O)c(OC)c1OC, C/C(=C/c1ccccc1)C(=O)Nc1sc(-c2ccccc2)cc1C(N)=O, CC(C)c1cc(C(N)=O)c(NC(=O)/C=C\c2ccccc2)s1, NC(=O)c1cc(-c2ccccc2)sc1NC(=O)Cc1ccc(O)cc1, COc1ccccc1/C=C\C(=O)Nc1sc(C(C)c2ccccc2)cc1C(N)=O (stereo not drawn), CN1CCc2c(sc(NC(=O)c3cc4cc(Cl)ccc4[nH]3)c2C(N)=O)C1
